# According to patent US5821353A, “DNA encoding 1,3 beta-D glucan synthase subunits” (Merck & Co., Inc., priority 1996, dated 1998):
# Experiments:
# [1] = system: S. cerevisiae MS14 mutant; assay: disc diffusion drug resistance/sensitivity test; type: cell-based, Saccharomyces cerevisiae
# Experimental: Cells of the yeast strains MY2144 and MY2145 carrying the respective MS10 and MS14 mutations were grown overnight in YPAD and SC media. From the overnight cultures, cells were diluted 1:10 in the same media and allowed to further grow for 4-6 hrs. The drug resistance/sensitivity tests were conducted by the disc diffusion assay on plates containing 20 ml of solid YPAD or SC media and 3×10^6 cells. The cells were added to premelted media that was cooled to 50° C. before pouring onto plates. Sterile filter discs containing different drugs were placed on the surface of the plates followed by incubation at 28° C. for 1-2 days. Sizes of the zones of growth inhibition were measured as an indication of relative drug resistance/sensitivity. The MS14 mutant is supersensitive to the chitin synthesis inhibitor nikkomycin Z and resistant to the echinocandin L-733-560.
# [2] = system: chitin synthase from X2180-1A; assay: chitin synthase assay, membrane preparation; type: biochemical, Saccharomyces cerevisiae; settings: membranes of X2180-1A
# Experimental: (§1) 125 mcg of the above extracts were trypsin activated and mixed with an equal volume (50 mcL) chitin synthase reaction cocktail, which included 0.5M Tris, pH 7.5, 40 mM MgCl, 320 microM GlcNAc, ^14 C-UDP-GlcNAc substrate mix, and 0.8% digitonin. After 30 minutes of incubation at 30° C., the incorporated ^14 C-[…] was precipitated with 10% trichloroacetic acid, collected onto Whatman glass microfiber GF/A disks and counted.
# (§2) Crude enzyme preparations associated with cell membranes were tested for glucan and chitin synthesis activities. The sensitivity of the mutant 1,3-beta-D glucan synthase to L-733,560 and papulacandin was tested along with the sensitivity of the chitin synthases to nikkomycin Z.
# (§3) The chitin synthase is not affected in its sensitivity to nikkomycin Z. The data in the following table show the IC50 s for the glucan synthase inhibitors (L-733,560 and papulacandin) and the chitin synthase inhibitor (nikkomycin Z) in 1,3-beta-D glucan synthase and chitin synthase assays, respectively. Equal amounts of membrane proteins were used to prime each reaction.
# [3] = system: chitin synthase from MY2145 (fks 1-4); assay: chitin synthase assay, membrane preparation; type: biochemical, Saccharomyces cerevisiae; settings: membranes of MY2145 (fks 1-4)
# Experimental: as §1, §2, §3
# [4] = system: chitin synthase from MY2144 (fks 1-3); assay: chitin synthase assay, membrane preparation; type: biochemical, Saccharomyces cerevisiae; settings: membranes of MY2144 (fks 1-3)
# Experimental: as §1, §2, §3
# [5] = system: S. cerevisiae MY2145; assay: MIC, growth inhibition; type: cell-based, Saccharomyces cerevisiae; settings: Saccharomyces cerevisiae, MY2145, 24 h; read-out: MIC
# Experimental: (§4) Liquid broth microdilution assay
# (§5) To quantitate the sensitivity of a particular strain of S. cerevisiae to a compound such as FK506, L-733,560, or nikkomycin Z, the following procedure was followed:
# (§6) Dissolve drug of interest at 4× the desired initial concentration. For L-733,560, a 64 mcg/ml solution in sterile SD is prepared. Aliquot 75 mcL of the drug suspension into column 3. Using a multichannel pipettor, transfer 75 mcL from column 3 into column 4, pipet up and down three times to mix, and then transfer 75 mcL from column 4 into column 5. Repeat the serial dilution until column 12 is reached; after mixing, discard 75 mcL to waste.
# (§7) Inoculate each strain in a given row by adding 75 mcL of the inoculum into columns 2 to 12. […] Column 2 serves as the no-drug or 100% growth control. The plate is then incubated overnight at 30° C. without shaking.
# (§8) After approximately 24 hours of incubation, gently agitate the plate to resuspend the cells and read the absorbance at 600 nm wavelength. The % control growth for any given well can be calculated by dividing the absorbance value for that well by the value from column 2 in the same row. If this is done for each column, the data can be plotted as "Percent control growth" vs. "Drug concentration". The resulting dose-response curve can be used to compare the drug sensitivities of various strains.
# (§9) The data in the following table are the minimum concentration of the various drugs required to inhibit the growth of each the mutants and their parent X2180-1A.
# [6] = system: S. cerevisiae X2180-1A; assay: MIC, growth inhibition; type: cell-based, Saccharomyces cerevisiae; settings: Saccharomyces cerevisiae, X21801A, 24 h, minimum concentration required to inhibit growth, read-out: MIC
# Experimental: as §4, §5, §6, §7, §8, §9
# [7] = system: S. cerevisiae MY2144 (fks 1-3); assay: MIC, growth inhibition; type: cell-based, Saccharomyces cerevisiae; settings: Saccharomyces cerevisiae, 24 h
# Experimental: as §4, §5, §6, §7, §8, §9
compound,measurement,setting,value
"C[C@@H]([C@H](N)C(=O)N[C@H](C(=O)O)[C@H]1O[C@@H](n2ccc(=O)[nH]c2=O)[C@H](O)[C@@H]1O)[C@H](O)c1ccc(O)cn1 [Nikkomycin Z, nikkomycin Z]",drug resistance/sensitivity phenotype,[1],supersensitive
same,IC50,[2],0.74 µg/mL
same,IC50,[3],0.64 µg/mL
same,IC50,[4],0.60 µg/mL
same,MIC,[5],0.2 µg/mL
same,MIC,[6],> 100 µg/mL
same,MIC,[7],> 100 µg/mL
